Reference: patent US8871719B2, “Modified MELK peptides and vaccines containing the same” (OncoTherapy Science, Inc., priority 2010, dated 2014)
“Also recorded” adds a separate entry of the source.

Assays:
[1] = system: peptide-pulsed A24LCL cells; assay: CTL lines, IFN-gamma ELISA assay; format: cell-based, human
Protocol: CTLs were expanded in culture using the method similar to the one described by Riddell et al. (Walter E A et al., N Engl J Med 1995 Oct. 19, 333(16): 1038-44; Riddell S R et al., Nat Med 1996 Feb. 2(2): 216-23). A total of 5×10^4 CTLs were suspended in 25 ml of AIM-V/5% AS medium with 2 kinds of human B-lymphoblastoid cell lines, inactivated by MMC, in the presence of 40 ng/ml of anti-CD3 monoclonal antibody (Pharmingen). One day after initiating the cultures, 120 IU/ml of IL-2 were added to the cultures. The cultures were fed with fresh AIM-V/5% AS medium containing 30 IU/ml of IL-2 on days 5, 8 and 11 (Tanaka H et al., Br J Cancer 2001 Jan. 5, 84(1): 94-9; Umano Y et al., Br J Cancer 2001 Apr. 20, 84(8): 1052-7; Uchida N et al., Clin Cancer Res 2004 Dec. 15, 10(24): 8577-86; Suda T et al., Cancer Sci 2006 May, 97(5): 411-9; Watanabe T et al., Cancer Sci 2005 August, 96(8): 498-506).
(§1) Specifically, peptide-pulsed A24LCL (1×10^4/well) and tumor cell lines (5×10^4/well) were prepared as stimulator cells. Cultured cells in 48 wells, CTL lines and clones were used as responder cells. IFN-gamma ELISPOT assay and IFN-gamma ELISA assay were performed under manufacture procedure.

[2] = system: peptide-pulsed A24LCL cells; assay: In vitro CTL induction, IFN-gamma ELISPOT assay; format: cell-based, human; conditions: for Immunogenicity compared to MELK-A24-9-87_WT: CTL induction from donors B and C; for IFN-gamma production of CTLs (ELISPOT): target cells pulsed with cognate peptide vs not pulsed; for CTL inducibility / CTL activity: in vitro stimulation of T-cells by peptide-loaded DCs
From the text: Monocyte-derived dendritic cells (DCs) were used as antigen-presenting cells (APCs) to induce cytotoxic T lymphocyte (CTL) responses against peptides presented on HLA. DCs were generated in vitro as described elsewhere (Nakahara S et al., Cancer Res 2003 Jul. 15, 63(14): 4112-8). Specifically, peripheral blood mononuclear cells (PBMCs) isolated from three healthy donors termed donors A, B and C (HLA-A*2402 positive) by Ficoll-Plaque (Pharmacia) solution were separated by adherence to a plastic tissue culture dish (Becton Dickinson) so as to enrich them as the monocyte fraction. The monocyte-enriched population was cultured in the presence of 1,000 U/ml of granulocyte-macrophage colony-stimulating factor (GM-CSF) (R&D System) and 1,000 U/ml of interleukin (IL)-4 (R&D System) in AIM-V Medium (Invitrogen) containing 2% heat-inactivated autologous serum (AS). After 7 days of culture, the cytokine-induced DCs were pulsed with 20 micro-g/ml of each of the synthesized peptides in the presence of 3 micro-g/ml of beta2-microglobulin for 3 hrs at 37 degrees C. in AIM-V Medium. The generated cells appeared to express DC-associated molecules, such as CD80, CD83, CD86 and HLA class II, on their cell surfaces (data not shown). These peptide-pulsed DCs were then inactivated by X-irradiation (20 Gy) and mixed at a 1:20 ratio with autologous CD8+ T cells, obtained by positive selection with CD8 Positive Isolation Kit (Dynal). These cultures were set up in 48-well plates (Corning); each well contained 1.5×10^4 peptide-pulsed DCs, 3×10^5 CD8+ T cells and 10 ng/ml of IL-7 (R&D System) in 0.5 ml of AIM-V/2% AS medium. 3 days later, these cultures were supplemented with IL-2 (CHIRON) to a final concentration of 20 IU/ml. On days 7 and 14, the T cells were further stimulated with the autologous peptide-pulsed DCs. The DCs were prepared each time by the same way described above. CTLs were tested against peptide-pulsed A24LCL cells after the 3rd round of peptide stimulation on day 21 (Tanaka H et al., Br J Cancer 2001 Jan. 5, 84(1): 94-9; Umano Y et al., Br J Cancer 2001 Apr. 20, 84(8): 1052-7; Uchida N et al., Clin Cancer Res 2004 Dec. 15, 10(24): 8577-86; Suda T et al., Cancer Sci 2006 May, 97(5): 411-9; Watanabe T et al., Cancer Sci 2005 August, 96(8): 498-506).
as §1

[3] = system: peptide-pulsed A24LCL cells; assay: CTL clones, IFN-gamma ELISA assay; format: cell-based, human; conditions: for IFN-gamma production of CTL clones (ELISA): donor B
Protocol: The dilutions were made to have 0.3, 1, and 3 CTLs/well in 96 round-bottomed micro titer plate (Nalge Nunc International). CTLs were cultured with 1×10^4 cells/well of 2 kinds of human B-lymphoblastoid cell lines, 30 ng/ml of anti-CD3 antibody, and 125 U/ml of IL-2 in a total of […] of AIM-V Medium containing 5% AS. 50 micro-1/well of IL-2 were added to the medium 10 days later so to reach a final concentration of 125 U/ml IL-2. CTL activity was tested on the 14th day, and CTL clones were expanded using the same method as described above (Uchida N et al., Clin Cancer Res 2004 Dec. 15, 10(24): 8577-86; Suda T et al., Cancer Sci 2006 May, 97(5): 411-9; Watanabe T et al., Cancer Sci 2005 August, 96(8): 498-506).
as §1

[4] = system: tumor cell lines MDA-MB-4355 (MELK+, A24+) and KLM-1 (MELK+, A24+); assay: Specific CTL activity against tumor cell lines expressing MELK and HLA-A*2402; format: cell-based, human; conditions: for IFN-gamma production / CTL activity of CTL clone against KLM-1: KLM-1 (MELK+, A24+) compared with KP-1N
Protocol: (§2) TISI, human leukocyte antigen (HLA)-A*2402 positive B-lymphoblastoid cell line, was purchased from the IHWG Cell and Gene Bank (Seattle, Wash.). COS7, MDA-MB-435S and T47D were purchased from ATCC. KLM-1 and KP-1N were purchased from RIKEN cell bank and JCRB cell bank, respectively.
as §1

[5] = system: COS7 cells transfected with MELK and HLA-A*2402; assay: Specific CTL activity against transfected COS7 cells; format: cell-based
Protocol: as §1
The cDNA encoding an open reading frame of target gene or HLA-A*2402 was amplified by PCR. The PCR-amplified products were cloned into pCAGGS vector. The plasmids were transfected into COST, which is the target genes and HLA-A24 negative cell line, using lipofectamine 2000 (Invitrogen) according to the manufacturer's recommended procedures. After 2 days from transfection, the transfected cells were harvested with versene (Invitrogen) and used as stimulator cells (5×10^4 cells/well) for CTL activity assay.

[6] = system: T47D (MELK+, A24−) and KP-1N (MELK+, A24−); assay: Specific CTL activity against tumor cell lines expressing MELK but not HLA-A*2402; format: cell-based, human; conditions: T47D and KP-1N (MELK+, A24−)
Protocol: as §2, §1

[7] = donor B, target cells pulsed with MELK-A24-9-87_WT vs irrelevant HIV peptide
[8] = target cells pulsed with MELK-A24-9-87_WT vs irrelevant HIV peptide
[9] = donor A, target cells pulsed with cognate peptide vs without peptide pulse
[10] = donor C, target cells pulsed with MELK-A24-9-87_WT vs irrelevant HIV peptide

KYCPGGELF [MELK-A24-9-87_1K]
IFN-gamma production of CTL lines (ELISA) [1, 7]: potent IFN-gamma production
Immunogenicity compared to MELK-A24-9-87_WT [2]: superior immunogenicity
IFN-gamma production of CTLs (ELISPOT) ([2]; donor B): potent IFN-gamma production; also recorded: potential IFN-gamma productive ability
CTL inducibility / CTL activity [2]: significant and specific CTL activity; also recorded: CTLs were successfully established
CTL inducibility / CTL activity ([2]; listed as 35): particularly strong CTL inducibility
IFN-gamma production of CTL clones (ELISA) [3, 8]: potent IFN-gamma production

LYVLMCGFL [SEQ ID NO: 1]
IFN-gamma production of CTL lines (ELISA) [1, 9]: potent IFN-gamma production
IFN-gamma production / CTL activity of CTL clone against KLM-1 [4]: no IFN-gamma production
IFN-gamma production of CTLs (ELISPOT) ([2]; donor A, listed as MELK-A24-9-199): potent IFN-gamma production; also recorded: potential IFN-gamma productive ability
IFN-gamma production of CTL clone (ELISA) ([3]; donor A, target cells pulsed with cognate peptide vs not pulsed, listed as MELK-A24-9-199): potent IFN-gamma production; also recorded: had the ability to recognize the peptide-pulsed target cells

TANKIFMVL [SEQ ID NO: 21]
IFN-gamma production of CTLs (ELISPOT) ([2]; donor A, listed as MELK-A24-9-78): potent IFN-gamma production; also recorded: potential IFN-gamma productive ability

EYCPGGELF [MELK-A24-9-87_WT]
IFN-gamma production of CTL lines (ELISA) [1, 9]: potent IFN-gamma production
IFN-gamma production of CTL lines (ELISA) [1, 10]: no IFN-gamma production; also recorded: CTL line was not established
IFN-gamma production of CTLs (ELISPOT) ([2]; donor A): potent IFN-gamma production; also recorded: potential IFN-gamma productive ability
IFN-gamma production of CTLs (ELISPOT) ([2]; donor B): no specific IFN-gamma production was detected; also recorded: peptide specific IFN-gamma production was not detected
CTL inducibility / CTL activity [2]: significant and specific CTL activity
Specific CTL activity of CTL clone against controls ([5]; COS7 cells expressing either HLA-A*2402 or MELK): no significant specific CTL activity
Specific CTL activity of CTL clone ([5]; COS7 cells transfected with both MELK and HLA-A*2402): potent CTL activity; also recorded: specific CTL activity
IFN-gamma production of CTL clone (ELISA) ([3]; donor A, target cells pulsed with cognate peptide vs not pulsed): potent IFN-gamma production

EYMPGGELF [MELK-A24-9-87_3M]
IFN-gamma production of CTL lines (ELISA) [1, 7]: potent IFN-gamma production
Immunogenicity compared to MELK-A24-9-87_WT [2]: superior immunogenicity
IFN-gamma production of CTLs (ELISPOT) ([2]; donor B): potent IFN-gamma production; also recorded: potential IFN-gamma productive ability
CTL inducibility / CTL activity [2]: significant and specific CTL activity; also recorded: CTLs were successfully established
CTL inducibility / CTL activity ([2]; listed as 41): particularly strong CTL inducibility
IFN-gamma production of CTL clones (ELISA) [3, 8]: potent IFN-gamma production

VYKRLVEDIL [SEQ ID NO: 23]
IFN-gamma production of CTL lines (ELISA) [1, 9]: potent IFN-gamma production
IFN-gamma production of CTLs (ELISPOT) ([2]; donor A, listed as MELK-A24-10-637): potent IFN-gamma production; also recorded: potential IFN-gamma productive ability
CTL inducibility / CTL activity [2]: significant and specific CTL activity

DYIISQDRL [SEQ ID NO: 2]
IFN-gamma production of CTLs (ELISPOT) ([2]; donor A, listed as MELK-A24-9-96): typical negative data; also recorded: specific IFN-gamma production was not shown

EYCPGGNLF [MELK-A24-9-87_7N]
IFN-gamma production of CTL lines (ELISA) [1, 7]: potent IFN-gamma production
IFN-gamma production of CTL lines (ELISA) [1, 10]: peptide specific IFN-gamma production; also recorded: IFN-gamma production was detected
IFN-gamma production / CTL activity of CTL clone against KLM-1 [4]: specific CTL activity
CTL activity of CTL line against tumor cell lines ([4]; MDA-MB-4355 and KLM-1 (MELK+, A24+)): potent CTL activity; also recorded: specific CTL activity
Immunogenicity compared to MELK-A24-9-87_WT [2]: superior immunogenicity
IFN-gamma production of CTLs (ELISPOT) ([2]; donor B): potent IFN-gamma production; also recorded: potential IFN-gamma productive ability
IFN-gamma production of CTLs (ELISPOT) ([2]; donor C): potent IFN-gamma production; also recorded: potential IFN-gamma productive ability
CTL inducibility / CTL activity [2]: significant and specific CTL activity; also recorded: CTLs were successfully established
CTL inducibility / CTL activity ([2]; listed as 44): particularly strong CTL inducibility
CTL activity of CTL line against tumor cell lines [6]: without showing CTL activity
IFN-gamma production of CTL clones (ELISA) [3, 8]: potent IFN-gamma production
IFN-gamma production of CTL clone (ELISA) [3, 10]: potent IFN-gamma production
